Measured values taken from patent publication US20220306647A1, “NOVEL INDOLE-2-CARBOXAMIDES ACTIVE AGAINST THE HEPATITUS B VIRUS (HBV)” (AICURIS GMBH & CO. KG, priority 2019, published 2022).

Molecular target: T1, HBV core protein (C-terminal truncated core protein, 149 amino acids of the N-terminal assembly domain, BODIPY-FL labelled) (UniProt P03146)
T1 construct: fused on or other part: A single cysteine added after residue 149, at position 150; It carries the BODIPY-FL maleimide label
Test: Biochemical capsid assembly assay (fluorescence quenching)
Settings: assembly started with NaCl, fluorescence read after 6 min, read-out: Assembly activity
Experimental: The screening for assembly effector activity was done based on a fluorescence quenching assay published by Zlotnick et al. (2007). The C-terminal truncated core protein containing 149 amino acids of the N-terminal assembly domain fused to a unique cysteine residue at position 150 and was expressed in E. coli using the pET expression system (Merck Chemicals, Darmstadt). Purification of core dimer protein was performed using a sequence of size exclusion chromatography steps. In brief, the cell pellet from 1 L BL21 (DE3) Rosetta2 culture expressing the coding sequence of core protein cloned NdeI/XhoI into expression plasmid pET21b was treated for 1 h on ice with a native lysis buffer (Qproteome Bacterial Protein Prep Kit; Qiagen, Hilden). After a centrifugation step the supernatant was precipitated during 2 h stirring on ice with 0.23 g/ml of solid ammonium sulfate. Following further centrifugation the resulting pellet was resolved in buffer A (100 mM Tris, pH 7.5; 100 mM NaCl; 2 mM DTT) and was subsequently loaded onto a buffer A equilibrated CaptoCore 700 column (GE HealthCare, Frankfurt). The column flow through containing the assembled HBV capsid was dialyzed against buffer N (50 mM NaHCO3 pH 9.6; 5 mM DTT) before urea was added to a final concentration of 3M to dissociate the capsid into core dimers for 1.5 h on ice. The protein solution was then loaded onto a 1L Sephacryl S300 column. After elution with buffer N core dimer containing fractions were identified by SDS-PAGE and subsequently pooled and dialyzed against 50 mM HEPES pH 7.5; 5 mM DTT. To improve the assembly capacity of the purified core dimers a second round of assembly and disassembly starting with the addition of 5 M NaCl and including the size exclusion chromatography steps described above was performed. From the last chromatography step core dimer containing fractions were pooled and stored in aliquots at concentrations between 1.5 to 2.0 mg/ml at −80° C.
Immediately before labelling the core protein was reduced by adding freshly prepared DTT in a final concentration of 20 mM. After 40 min incubation on ice storage buffer and DTT was removed using a Sephadex G-25 column (GE HealthCare, Frankfurt) and 50 mM HEPES, pH 7.5. For labelling 1.6 mg/ml core protein was incubated at 4° C. and darkness overnight with BODIPY-FL maleimide (Invitrogen, Karlsruhe) in a final concentration of 1 mM. After labelling the free dye was removed by an additional desalting step using a Sephadex G-25 column. Labelled core dimers were stored in aliquots at 4° C. In the dimeric state the fluorescence signal of the labelled core protein is high and is quenched during the assembly of the core dimers to high molecular capsid structures. The screening assay was performed in black 384 well microtiter plates in a total assay volume of 10 μl using 50 mM HEPES pH 7.5 and 1.0 to 2.0 μM labelled core protein. Each screening compound was added in 8 different concentrations using a 0.5 log-unit serial dilution starting at a final concentration of 100 μM, 31.6 μM or 10 μM, In any case the DMSO concentration over the entire microtiter plate was 0.5%. The assembly reaction was started by the injection of NaCl to a final concentration of […] which induces the assembly process to approximately 25% of the maximal quenched signal. 6 min after starting the reaction the fluorescence signal was measured using a Clariostar plate reader (BMG Labtech, Ortenberg) with an excitation of 477 nm and an emission of 525 nm. As 100% and 0% assembly control HEPES buffer containing 2.5 M and 0 M NaCl was used. Experiments were performed thrice in triplicates. EC50 values were calculated by non-linear regression analysis using the Graph Pad Prism 6 software (GraphPad Software, La Jolla, USA).

T1 sequence (P03146 whole entry, the tested form may be a part): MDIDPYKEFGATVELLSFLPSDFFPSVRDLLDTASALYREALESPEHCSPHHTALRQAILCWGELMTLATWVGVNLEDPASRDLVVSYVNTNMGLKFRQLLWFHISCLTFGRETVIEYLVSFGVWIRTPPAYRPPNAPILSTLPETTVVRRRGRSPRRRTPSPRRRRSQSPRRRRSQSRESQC

Structure (SMILES) | IC50
O=C(c1cc2cc(F)c(F)cc2[nH]1)N1CCc2nn3c(c2C1)C(=O)N(CCO)C1(CC3)CC1 [Example 121, 4′-(5,6-difluoro-1H-indole-2-carbonyl)-13′-(2-hydroxyethyl)-4′, 8′,9′,13′-tetraazaspiro[cyclopropane-1,12′-tricyclo[7.5.0.0^2,7]tetradecane]-1′,7′-dien-14′-one] | < 5 µM
O=C(O)c1ccc(C2(NC(=O)c3cnn4c3CN(C(=O)c3cc5ccccc5[nH]3)CC4)CC2)nc1 [Example 19, 6-{1-[5-(1H-indole-2-carbonyl)-4H,5H,6H,7H-pyrazolo[1,5-a]pyrazine-3-amido]cyclopropyl}pyridine-3-carboxylic acid] | < 100 µM
Cc1cc(F)cc2[nH]c(C(=O)N3CCc4n[nH]c(C(=O)N(C)C5(c6ccc(C(=O)O)cc6)CC5)c4C3)cc12 [Example 67, 4-{1-[N-methyl-5-(6-fluoro-4-methyl-1H-indole-2-carbonyl)-2H,4H,5H,6H,7H-pyrazolo[4,3-c]pyridine-3-amido]cyclopropyl}benzoic acid] | < 5 µM
O=C(c1cc2ccccc2[nH]1)N1CCc2nn3c(c2C1)C(=O)N(CC(F)F)C1(CC3)CC1 [Example 147, 13′-(2,2-difluoroethyl)-4′-(1H-indole-2-carbonyl)-4′,8′,9′,13′-tetraazaspiro[cyclopropane-1,12′-tricyclo[7.5.0.0^2,7]tetradecane]-1′,7′-dien-14′-one] | < 5 µM
CN(C(=O)c1[nH]nc2c1CN(C(=O)c1cc3c(F)c(F)ccc3[nH]1)CC2)C1(c2ncc(C(=O)O)cn2)CC1 [Example 71, 2-{1-[N-methyl-5-(4,5-difluoro-1H-indole-2-carbonyl)-2H,4H,5H,6H,7H-pyrazolo[4,3-c]pyridine-3-amido]cyclopropyl}pyrimidine-5-carboxylic acid] | < 5 µM
Cc1cc(F)cc2[nH]c(C(=O)N3CCc4n[nH]c(C(=O)N(C)C5(c6ncc(C(=O)O)cn6)CC5)c4C3)cc12 [Example 73, 2-{1-[N-methyl-5-(6-fluoro-4-methyl-1H-indole-2-carbonyl)-2H,4H,5H,6H,7H-pyrazolo[4,3-c]pyridine-3-amido]cyclopropyl}pyrimidine-5-carboxylic acid] | < 5 µM
COCCN1C(=O)c2c3c(nn2CCC12CC2)CCN(C(=O)c1cc2ccccc2[nH]1)C3 [Example 123, 4′-(1H-indole-2-carbonyl)-13′-(2-methoxyethyl)-4′, 8′,9′,13′-tetraazaspiro[cyclopropane-1,12′-tricyclo[7.5.0.0^2,7]tetradecane]-1′,7′-dien-14′-one] | < 5 µM
C[C@@H](NC(=O)c1onc2c1CN(C(=O)c1cc3c(Cl)cccc3[nH]1)CC2)C(F)(F)F [Example 118, 5-(4-chloro-1H-indole-2-carbonyl)-N-[(2R)-1,1,1-trifluoropropan-2-yl]-4H,5H,6H,7H-[1,2]oxazolo[4,3-c]pyridine-3-carboxamide] | < 5 µM
C[C@@H](NC(=O)c1noc2c1CN(C(=O)c1cc3cc(F)c(F)cc3[nH]1)CC2)C(F)(F)F [Example 111, 5-(5,6-difluoro-1H-indole-2-carbonyl)-N-[(2R)-1,1,1-trifluoropropan-2-yl]-4H,5H,6H,7H-[1,2]oxazolo[4,5-c]pyridine-3-carboxamide] | < 5 µM
O=C(NC1(COC(F)F)CC1)c1onc2c1CN(C(=O)c1cc3ccccc3[nH]1)CC2 [Example 132, N-{1-[(difluoromethoxy)methyl]cyclopropyl}-5-(1H-indole-2-carbonyl)-4H,5H,6H,7H-[1,2]oxazolo[4,3-c]pyridine-3-carboxamide] | < 5 µM
CN(C)CCN1C(=O)c2c3c(nn2CCC12CC2)CCN(C(=O)c1cc2ccccc2[nH]1)C3 [Example 124, 13′-[2-(dimethylamino)ethyl]-4′-(1H-indole-2-carbonyl)-4′,8′,9′,13′-tetraazaspiro[cyclopropane-1,12′-tricyclo[7.5.0.0^2,7]tetradecane]-1′,7′-dien-14′-one] | 5 to 10 µM
C[C@@H](NC(=O)c1onc2c1CN(C(=O)c1cc3cc(F)c(F)cc3[nH]1)CC2)C(F)(F)F [Example 115, 5-(5,6-difluoro-1H-indole-2-carbonyl)-N-[(2R)-1,1,1-trifluoropropan-2-yl]-4H,5H,6H,7H-[1,2]oxazolo[4,3-c]pyridine-3-carboxamide] | < 5 µM
Cc1c(F)ccc2[nH]c(C(=O)N3CCc4n[nH]c(C(=O)N(C)C5(c6ncc(C(=O)O)cn6)CC5)c4C3)cc12 [Example 72, 2-{1-[N-methyl-5-(5-fluoro-4-methyl-1H-indole-2-carbonyl)-2H,4H,5H,6H,7H-pyrazolo[4,3-c]pyridine-3-amido]cyclopropyl}pyrimidine-5-carboxylic acid] | < 5 µM
CN(C(=O)c1n[nH]c2c1CN(C(=O)c1cc3cc(F)c(Cl)cc3[nH]1)CC2)C1(c2ncc(C(=O)O)cn2)CC1 [Example 136, 2-{1-[N-methyl-5-(6-chloro-5-fluoro-1H-indole-2-carbonyl)-2H,4H,5H,6H,7H-pyrazolo[4,3-c]pyridine-3-amido]cyclopropyl}pyrimidine-5-carboxylic acid] | < 5 µM
Cc1c(F)ccc2[nH]c(C(=O)N3CCn4ncc(C(=O)N(C)C5(c6ncc(C(=O)O)cn6)CC5)c4C3)cc12 [Example 59, 2-{1-[N-methyl-5-(5-fluoro-4-methyl-1H-indole-2-carbonyl)-4H,5H,6H,7H-pyrazolo[1,5-a]pyrazine-3-amido]cyclopropyl}pyrimidine-5-carboxylic acid] | < 5 µM
Cc1c(F)ccc2[nH]c(C(=O)N3CCc4n[nH]c(C(=O)N(C)C5(c6ccc(C(=O)O)cc6)CC5)c4C3)cc12 [Example 66, 4-{1-[N-methyl-5-(5-fluoro-4-methyl-1H-indole-2-carbonyl)-2H,4H,5H,6H,7H-pyrazolo[4,3-c]pyridine-3-amido]cyclopropyl}benzoic acid] | < 5 µM
O=C(O)c1cccc(C2(NC(=O)c3cnn4c3CN(C(=O)c3cc5ccccc5[nH]3)CC4)CC2)c1 [Example 32, 3-{1-[5-(1H-indole-2-carbonyl)-4H,5H,6H,7H-pyrazolo[1,5-a]pyrazine-3-amido]cyclopropyl}benzoic acid] | < 5 µM
COC(=O)CN1C(=O)c2c3c(nn2CCC12CC2)CCN(C(=O)c1cc2ccccc2[nH]1)C3 [Example 149, methyl 2-[4′-(1H-indole-2-carbonyl)-14′-oxo-4′, 8′,9′,13′-tetraazaspiro[cyclopropane-1,12′-tricyclo[7.5.0.0^2,7]tetradecane]-1′,7′-dien-13′-yl]acetate] | < 5 µM
O=C(c1cc2ccccc2[nH]1)N1CCc2nn3c(c2C1)C(=O)N(CCOC(F)(F)F)C1(CC3)CC1 [Example 146, 4′-(1H-indole-2-carbonyl)-13′-[2-(trifluoromethoxy)ethyl]-4′,8′,9′,13′-tetraazaspiro[cyclopropane-1,12′-tricyclo[7.5.0.0^2,7]tetradecane]-1′,7′-dien-14′-one] | < 5 µM
CN(C(=O)c1[nH]nc2c1CN(C(=O)c1cc3ccccc3[nH]1)CC2)C1(c2ccc(C(=O)O)cc2)CC1 [Example 44, 4-{1-[N-methyl-5-(1H-indole-2-carbonyl)-2H,4H,5H,6H,7H-pyrazolo[4,3-c]pyridine-3-amido]cyclopropyl}benzoic acid] | < 5 µM
CN(C(=O)c1[nH]nc2c1CN(C(=O)c1cc3ccccc3[nH]1)CC2)C1(c2ncc(C(=O)O)cn2)CC1 [Example 56, 2-{1-[N-methyl-5-(1H-indole-2-carbonyl)-2H,4H,5H,6H,7H-pyrazolo[4,3-c]pyridine-3-amido]cyclopropyl}pyrimidine-5-carboxylic acid] | 5 to 10 µM
C[C@@H](NC(=O)c1ncn2c1CN(C(=O)c1cc3ccccc3[nH]1)CC2)C(F)(F)F [Example 138, 7-(1H-indole-2-carbonyl)-N-[(2R)-1,1,1-trifluoropropan-2-yl]-5H,6H,7H,8H-imidazo[1,5-a]pyrazine-1-carboxamide] | < 5 µM
